Reference: the NIST ThermoML archive (doi:10.1021/je400056z)

Assay: xn = mol fraction of the nth substance listed
Conditions: Liquid, Vibrating tube method

CCCCCCCCCCCCC [tridecane] + O=C=O
Conditions	mass density [kg/m3]
313.15 K, 9000 kPa, x2 = 0.0955	750.6
313.15 K, 9000 kPa, x2 = 0.2526	754.3
313.15 K, 9000 kPa, x2 = 0.7549	791.4
313.15 K, 9000 kPa, x2 = 0.8978	790.8
313.15 K, 10000 kPa, x2 = 0.0955	751.4
313.15 K, 10000 kPa, x2 = 0.2526	755.1
313.15 K, 10000 kPa, x2 = 0.7549	794.4
313.15 K, 10000 kPa, x2 = 0.8978	795.2
313.15 K, 11000 kPa, x2 = 0.0955	752.2
313.15 K, 11000 kPa, x2 = 0.2526	756
313.15 K, 11000 kPa, x2 = 0.7549	797.7
313.15 K, 11000 kPa, x2 = 0.8978	799.4
313.15 K, 12000 kPa, x2 = 0.0955	753
313.15 K, 12000 kPa, x2 = 0.2526	756.8
313.15 K, 12000 kPa, x2 = 0.7549	800.8
313.15 K, 12000 kPa, x2 = 0.8978	803.7
313.15 K, 13000 kPa, x2 = 0.0955	753.7
313.15 K, 13000 kPa, x2 = 0.2526	757.6
313.15 K, 13000 kPa, x2 = 0.7549	803.7
313.15 K, 13000 kPa, x2 = 0.8978	807.9
313.15 K, 14000 kPa, x2 = 0.0955	754.5
313.15 K, 14000 kPa, x2 = 0.2526	758.4
313.15 K, 14000 kPa, x2 = 0.7549	806.6
313.15 K, 14000 kPa, x2 = 0.8978	812
313.15 K, 15000 kPa, x2 = 0.0955	755.2
313.15 K, 15000 kPa, x2 = 0.2526	759.2
313.15 K, 15000 kPa, x2 = 0.7549	809.4
313.15 K, 15000 kPa, x2 = 0.8978	815.9
313.15 K, 16000 kPa, x2 = 0.0955	756
313.15 K, 16000 kPa, x2 = 0.2526	759.9
313.15 K, 16000 kPa, x2 = 0.7549	812.1
313.15 K, 16000 kPa, x2 = 0.8978	819.5
313.15 K, 17000 kPa, x2 = 0.0955	756.6
313.15 K, 17000 kPa, x2 = 0.2526	760.7
313.15 K, 17000 kPa, x2 = 0.7549	814.8
313.15 K, 17000 kPa, x2 = 0.8978	823.1
313.15 K, 18000 kPa, x2 = 0.0955	757.3
313.15 K, 18000 kPa, x2 = 0.2526	761.4
313.15 K, 18000 kPa, x2 = 0.7549	817.4
313.15 K, 18000 kPa, x2 = 0.8978	826.6
313.15 K, 19000 kPa, x2 = 0.0955	758
313.15 K, 19000 kPa, x2 = 0.2526	762.1
313.15 K, 19000 kPa, x2 = 0.7549	819.8
313.15 K, 19000 kPa, x2 = 0.8978	830.1
313.15 K, 20000 kPa, x2 = 0.0955	758.7
313.15 K, 20000 kPa, x2 = 0.2526	762.8
313.15 K, 20000 kPa, x2 = 0.7549	822.2
313.15 K, 20000 kPa, x2 = 0.8978	833.3
313.15 K, 21000 kPa, x2 = 0.0955	759.3
313.15 K, 21000 kPa, x2 = 0.2526	763.5
313.15 K, 21000 kPa, x2 = 0.7549	824.6
313.15 K, 21000 kPa, x2 = 0.8978	836.4
313.15 K, 22000 kPa, x2 = 0.0955	759.9
313.15 K, 22000 kPa, x2 = 0.2526	764.2
313.15 K, 22000 kPa, x2 = 0.7549	826.9
313.15 K, 22000 kPa, x2 = 0.8978	839.5
313.15 K, 23000 kPa, x2 = 0.0955	760.5
313.15 K, 23000 kPa, x2 = 0.2526	764.8
313.15 K, 23000 kPa, x2 = 0.7549	829.1
313.15 K, 23000 kPa, x2 = 0.8978	842.6
313.15 K, 24000 kPa, x2 = 0.0955	761.1
313.15 K, 24000 kPa, x2 = 0.2526	765.4
313.15 K, 24000 kPa, x2 = 0.7549	831.2
313.15 K, 24000 kPa, x2 = 0.8978	845.4
313.15 K, 25000 kPa, x2 = 0.0955	761.7
313.15 K, 25000 kPa, x2 = 0.2526	766
313.15 K, 25000 kPa, x2 = 0.7549	833.3
313.15 K, 25000 kPa, x2 = 0.8978	848.2
313.16 K, 8000 kPa, x2 = 0.5259	768.4
313.16 K, 9000 kPa, x2 = 0.5259	769.6
313.16 K, 10000 kPa, x2 = 0.5259	770.7
313.16 K, 11000 kPa, x2 = 0.5259	771.9
313.16 K, 12000 kPa, x2 = 0.5259	773
313.16 K, 13000 kPa, x2 = 0.5259	774.1
313.16 K, 14000 kPa, x2 = 0.5259	775.1
313.16 K, 15000 kPa, x2 = 0.5259	776.2
313.16 K, 16000 kPa, x2 = 0.5259	777.2
313.16 K, 17000 kPa, x2 = 0.5259	778.2
313.16 K, 18000 kPa, x2 = 0.5259	779.2
313.16 K, 19000 kPa, x2 = 0.5259	780.2
313.16 K, 20000 kPa, x2 = 0.5259	781.1
313.16 K, 21000 kPa, x2 = 0.5259	782
313.16 K, 23000 kPa, x2 = 0.5259	783.8
313.16 K, 24000 kPa, x2 = 0.5259	784.6
313.16 K, 25000 kPa, x2 = 0.5259	785.5
323.14 K, 11000 kPa, x2 = 0.8978	772.5
323.14 K, 12000 kPa, x2 = 0.8978	777.9
323.14 K, 13000 kPa, x2 = 0.8978	782.8
323.14 K, 14000 kPa, x2 = 0.8978	787.3
323.14 K, 15000 kPa, x2 = 0.8978	791.5
323.14 K, 16000 kPa, x2 = 0.8978	795.7
323.14 K, 17000 kPa, x2 = 0.8978	799.7
323.14 K, 18000 kPa, x2 = 0.8978	803.4
323.14 K, 19000 kPa, x2 = 0.8978	807.2
323.14 K, 20000 kPa, x2 = 0.8978	810.7
323.14 K, 21000 kPa, x2 = 0.8978	814
323.14 K, 22000 kPa, x2 = 0.8978	817.5
323.14 K, 23000 kPa, x2 = 0.8978	820.7
323.14 K, 24000 kPa, x2 = 0.8978	823.8
323.14 K, 25000 kPa, x2 = 0.8978	826.7
323.16 K, 9000 kPa, x2 = 0.0955	743.8
323.16 K, 9000 kPa, x2 = 0.2526	747
323.16 K, 10000 kPa, x2 = 0.0955	744.6
323.16 K, 10000 kPa, x2 = 0.2526	747.9
323.16 K, 11000 kPa, x2 = 0.0955	745.4
323.16 K, 11000 kPa, x2 = 0.2526	748.7
323.16 K, 11000 kPa, x2 = 0.7549	778.8
323.16 K, 12000 kPa, x2 = 0.0955	746.2
323.16 K, 12000 kPa, x2 = 0.2526	749.6
323.16 K, 12000 kPa, x2 = 0.7549	781.9
323.16 K, 13000 kPa, x2 = 0.0955	746.9
323.16 K, 13000 kPa, x2 = 0.2526	750.4
323.16 K, 13000 kPa, x2 = 0.7549	785.1
323.16 K, 14000 kPa, x2 = 0.0955	747.7
